Test results taken from patent US8951752B2, “N-demethyase genes and uses thereof” (priority 2011, dated 2015).
Where “and” joins values, the source holds several entries; their conditions need not be identical. Equal values may be shown once.

What was measured:
[1] = molecular target: T1, N-demethylase (Ndm: NdmA and NdmB subunits) (Pseudomonas putida, UniProt H9N289+H9N290); assay: Methylxanthine N-demethylase activity assay with purified Ndm plus partially purified Ccr; format: biochemical, Pseudomonas putida CBB5; details: for product formed from paraxanthine: 7.4 mU / 7.4 units of Ndm, 90 minutes; for Products identified: same products at 500 and 200 μM substrate; for Relative N-demethylase activity: relative to paraxanthine
T1 construct: lane 3, natural Ndm purified from P. putida CBB5; made in house; host or cells: purified from the natural strain Pseudomonas putida CBB5 (DEAE, Phenyl and Q Sepharose); not recombinant
T1 sequence (H9N289 1-351): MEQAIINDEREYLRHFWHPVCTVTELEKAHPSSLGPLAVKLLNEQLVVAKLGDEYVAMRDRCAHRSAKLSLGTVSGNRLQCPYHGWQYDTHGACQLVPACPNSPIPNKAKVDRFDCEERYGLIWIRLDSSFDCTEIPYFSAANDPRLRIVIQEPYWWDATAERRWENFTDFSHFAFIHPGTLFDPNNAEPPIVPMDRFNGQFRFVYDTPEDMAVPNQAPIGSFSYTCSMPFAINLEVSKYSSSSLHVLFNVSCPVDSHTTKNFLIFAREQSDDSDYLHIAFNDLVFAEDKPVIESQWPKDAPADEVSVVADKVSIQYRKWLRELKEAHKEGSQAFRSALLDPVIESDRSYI
T1 sequence (H9N290 1-355): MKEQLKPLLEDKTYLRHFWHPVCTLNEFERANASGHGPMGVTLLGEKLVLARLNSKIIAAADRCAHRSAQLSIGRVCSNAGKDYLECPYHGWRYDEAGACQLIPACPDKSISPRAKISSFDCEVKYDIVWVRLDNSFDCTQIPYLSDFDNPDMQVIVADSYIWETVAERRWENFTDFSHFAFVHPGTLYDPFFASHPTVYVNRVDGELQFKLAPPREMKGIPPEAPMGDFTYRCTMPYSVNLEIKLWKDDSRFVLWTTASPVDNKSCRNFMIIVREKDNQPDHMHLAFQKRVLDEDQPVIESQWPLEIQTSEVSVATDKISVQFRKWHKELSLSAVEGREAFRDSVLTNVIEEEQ
Description: Methylxanthine N-demethylase activity assay contained, in 1-mL total volume, 0.5 mM methylxanthine, 1 mM NADH, 50 μM Fe(NH4)2(SO4)2, and an appropriate amount of Ndm (0.08-7.5 mg protein, depending on purity of the protein) in 50 mM KPi buffer. Approximately 4 U of partially purified Ccr was added to reaction mixture when assaying Ndm in Phenyl Sepharose and Q Sepharose eluant-fractions (Ccr was not added to the enzyme reaction mixture when assaying Ndm activity in DEAE Sepharose eluant-fractions because Ccr co-eluted with Ndm). The reaction mixture was incubated at 30° C. with 300 rpm shaking on an incubating microplate shaker (VWR). Periodically, a small aliquot was sampled from the reaction mixture and mixed with equal volume of acetonitrile for quantifying concentrations of methylxanthines and N-demethylated products by HPLC. One unit of N-demethylase activity was defined as the consumption of one μmole methylxanthine per minute. When Ndm was coupled with the reductase and ferredoxin components of naphthalene dioxygenase of Pseudomonas sp. strain 9816 (Haigler & Gibson, 1990a; Haigler & Gibson, 1990b), 30 and 100 μg of the respective proteins were used. Spinach ferredoxin reductase and ferredoxin were also substituted for Ccr as described by Subramanian et al. (1979).
Determination of Kinetic Parameters. Apparent kinetic parameters of Ndm were determined by measuring the initial rate of disappearance (vo) of paraxanthine or 7-methylxanthine in 50 mM KPi buffer (pH 7.5) at 30° C. The paraxanthine and 7-methylxanthine concentrations ([S]) used in these experiments were from 20 to 500 μM. Substrates were incubated with Ndm and Ccr under standard conditions for 15 minutes. At 1, 5, 10, and 15 minutes, samples were removed from the reaction mixtures to quantitate substrate concentrations by HPLC. Plots of substrate concentrations against time were used to determine the initial rates of disappearance of substrates which were linear over 15 minutes. The apparent kinetic parameters were determined from Michaelis-Menten plots of Vo against [S] fitted with the equation
Determination of Oxygen Requirement. Oxygen consumption by Ndm during N-demethylation of paraxanthine was determined in a closed reaction vessel equipped with a Clarke-type oxygen electrode (Digitial Modell 0, Rank Brothers Ltd., Cambridge, England). The electrode was calibrated by using glucose oxidase (Sigma) and glucose for consumption of oxygen. Ndm activity assay was performed at 30° C. in a total volume of 1 ml of air-saturated 50 mM KPi buffer (pH 7.5) with 100 μM paraxanthine, 200 μM NADH, 50 μM Fe(NH4)2(SO4)2, 0.2 mg purified Ndm, and 4 U partially purified Ccr. The reaction was initiated by adding Ndm and partially purified Ccr after equilibration of all other reaction components for 3.3 minutes. After 13 minutes, a 100-μL aliquot was withdrawn from the reaction, immediately mixed with equal volume of acetonitrile to stop the enzyme reaction, and analyzed for N-demethylation product by HPLC. Background oxygen consumption, possibly due to NADH oxidase enzyme activity in the partially purified Ccr, was quantitated in control reactions containing all reaction components except paraxanthine.
Formaldehyde Determination. […] Twenty μL Nash reagent was added to 50 μl Ndm reaction sample plus 50 μl acetonitrile. This mixture was incubated at 51° C. for 12 minutes.

NdmA-His6 = molecular target: T2, NdmA-His6 (Pseudomonas putida, UniProt H9N289); assay: Methylxanthine N-demethylase assay and kinetics, NdmA-His6 with His6-NdmD; format: biochemical, Pseudomonas putida CBB5
T2 construct: made in house; host or cells: E. coli BL21(DE3)
T2 sequence (H9N289 1-351): T1 sequence (H9N289 1-351)
Description: (§1) Methylxanthine N-demethylase activity assay contained, in 1-ml total volume, 0.5 mM methylxanthine, 1 mM NADH, 50 μM Fe(NH4)2(SO4)2, and an appropriate amount of NdmA-His6 or NdmB-His6 (7.4 μg-2.5 mg protein depending on substrate specificity) in 50 mM KPi buffer (pH 7.5). Approximately 4 U of partially purified reductase, prepared as described previously (Summers et al., 2011) or 59 U of purified His6-NdmD was added to reaction mixture. Catalase from bovine liver (4,000 U) was also added to reactions containing His6-NdmD. The reaction mixture was incubated at 30° C. with 300 rpm shaking on an incubating microplate shaker (VWR, Radnor, Pa.). Periodically, a small aliquot was sampled from the reaction mixture and mixed with equal volume of acetonitrile for quantifying concentrations of methylxanthines and N-demethylated products by HPLC. One unit of N-demethylase activity was defined as the consumption of one […] methylxanthine per minute.
(§2) Apparent kinetic parameters of NdmA-His6 and NdmB-His6 were determined by measuring the initial rate of disappearance (vo) of methylxanthines in 50 mM KPi buffer (pH 7.5) at 30° C. The initial substrate concentrations (ESI) used in these experiments were from 25 to 500 μM. Substrates were incubated with His6-NdmD plus either NdmA-His6 or NdmB-His6 under standard conditions for 15 minutes. At 1, 5, 10, and 15 minutes, samples were removed from the reaction mixtures to quantitate substrate concentrations by HPLC. Plots of substrate concentrations against time were used to determine the initial rates of disappearance of substrates which were linear over 15 minutes. The apparent kinetic parameters were determined from Michaelis-Menten plots of vo against [S] fitted with the equation

NdmB-His6 = molecular target: T3, NdmB-His6 (Pseudomonas putida, UniProt H9N290); assay: Methylxanthine N-demethylase assay and kinetics, NdmB-His6 with His6-NdmD; format: biochemical, Pseudomonas putida CBB5
T3 construct: made in house; host or cells: E. coli BL21(DE3)
T3 sequence (H9N290 1-355): T1 sequence (H9N290 1-355)
Description: as §1, §2

His6-NdmD = His6-NdmD (Pseudomonas putida, UniProt H9N291); assay: N-demethylase activity of purified His6-NdmD alone; format: biochemical, Pseudomonas putida CBB5
His6-NdmD, sequence (H9N291 1-588 with tags or gaps): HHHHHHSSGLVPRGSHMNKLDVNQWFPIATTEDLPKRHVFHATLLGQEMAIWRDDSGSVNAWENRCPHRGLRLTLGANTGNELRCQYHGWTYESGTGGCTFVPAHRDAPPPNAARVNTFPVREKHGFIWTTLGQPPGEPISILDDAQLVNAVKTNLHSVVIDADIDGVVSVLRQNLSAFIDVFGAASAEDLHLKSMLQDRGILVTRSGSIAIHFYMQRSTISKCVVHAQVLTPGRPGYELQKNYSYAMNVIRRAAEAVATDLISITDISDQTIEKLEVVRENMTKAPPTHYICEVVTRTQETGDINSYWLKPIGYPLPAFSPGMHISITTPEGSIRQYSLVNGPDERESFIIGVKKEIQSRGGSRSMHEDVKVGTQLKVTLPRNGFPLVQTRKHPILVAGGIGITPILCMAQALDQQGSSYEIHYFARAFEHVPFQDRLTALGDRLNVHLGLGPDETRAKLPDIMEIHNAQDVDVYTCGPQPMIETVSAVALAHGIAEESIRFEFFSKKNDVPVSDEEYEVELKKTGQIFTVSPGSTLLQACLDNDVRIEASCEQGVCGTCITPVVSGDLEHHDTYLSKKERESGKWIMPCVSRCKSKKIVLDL

[2] = tested on: recombinant E. coli cells that contain NdmABCD; assay: Conversion by recombinant E. coli cells without NdmE; format: cell-based; details: absence of NdmE
[3] = tested on: E. coli cells expressing NdmABCDE; assay: Conversion by recombinant E. coli cells with NdmE; format: cell-based
[4] = tested on: cell extracts prepared from P. putida CBB5; assay: NADH-dependent N-demethylase activity of CBB5 cell extracts; format: biochemical, Pseudomonas putida CBB5; details: 0.5 mM substrate, 7.2 mg mL^−1 protein
Pseudomonas putida CBB5 = assay: Resting cell degradation of caffeine in coffee extract, black tea extract and buffer by CBB5; format: cell-based
bacteria = details: 0.1% concentration; cited from earlier work

## Cn1cnc2[nH]c(=O)[nH]c(=O)c21 [7-Methylxanthine, 7-methylxanthine]
[1]
  product formed from paraxanthine: 126.9 ± 6.40 µM
  Products identified: xanthine
[1]; listed as 7-methylxanthine
  product formed from paraxanthine: 126.9 ± 6.4 µM
[1]; from paraxanthine, after 13 minutes
  N-demethylation product present: Approximately 39.9 μM
[1]; substrate conc. 200 μM
  Relative N-demethylase activity: 664.2 ± 61.1
[1]; substrate conc. 500 μM
  Relative N-demethylase activity: 455.7 ± 17.6
NdmA-His6; NdmA
  N-demethylase activity: inactive
NdmA-His6; NdmA-His6, 30° C., pH 7.5, ∞ where no activity
  Km: ∞
NdmB-His6; NdmB
  N-demethylase activity: no activity
NdmB-His6; NdmB-His6, 30° C., pH 7.5, ∞ where no activity
  Km: ∞
His6-NdmD
  activity of purified His6-NdmD: no activity
[2]
  conversion by cells: remained untouched
[3]
  conversion product: xanthine
NdmC
  N-demethylation by NdmC fraction: sole substrate

## Cn1c(=O)c2c(ncn2C)n(C)c1=O [Caffeine, 1,3,7-trimethylxanthine]
[1]
  Products identified: paraxanthine, and theobromine, and 7-methylxanthine, and xanthine
[1]; substrate conc. 200 μM
  Relative N-demethylase activity: 48.2 ± 4.8
[1]; substrate conc. 500 μM
  Relative N-demethylase activity: 30.8 ± 1.7
NdmA-His6; NdmA-His6
  Product: Theobromine
NdmA-His6; NdmA-His6, listed as caffeine
  Product: theobromine
NdmB-His6; NdmB-His6
  Product: Paraxanthine
[4]
  degradation rate compared with paraxanthine: significantly slower
Pseudomonas putida CBB5; 18 mM (highest concentration) caffeine in buffer solution
  time for caffeine degradation: 2 h
Pseudomonas putida CBB5; 18 mM caffeine in coffee extract
  time for caffeine degradation: 6 h
Pseudomonas putida CBB5; diluted black tea extract (1 mM caffeine)
  time for caffeine degradation: ≤ 0.667 h
Pseudomonas putida CBB5; undiluted black tea extract (8 mM caffeine)
  time for caffeine disappearance: 40 min
[2]
  conversion by cells: 7-methylxanthine from caffeine, but not xanthine
[3]
  conversion product: xanthine
NdmC
  N-demethylation by NdmC fraction: not N-demethylated
bacteria
  effect on protein synthesis in bacteria and yeast: inhibits protein synthesis
